The record followed here is patent publication US8530461B2 (Boehringer Ingelheim International GmbH, priority 2011, dated 2013).

For the experiment, the target named is T1, human ACC2 (Homo sapiens, UniProt O00763).
T1 construct: made in house; host or cells: insect cells (baculoviral expression system)
T1 sequence (O00763 129-2458 limits assumed): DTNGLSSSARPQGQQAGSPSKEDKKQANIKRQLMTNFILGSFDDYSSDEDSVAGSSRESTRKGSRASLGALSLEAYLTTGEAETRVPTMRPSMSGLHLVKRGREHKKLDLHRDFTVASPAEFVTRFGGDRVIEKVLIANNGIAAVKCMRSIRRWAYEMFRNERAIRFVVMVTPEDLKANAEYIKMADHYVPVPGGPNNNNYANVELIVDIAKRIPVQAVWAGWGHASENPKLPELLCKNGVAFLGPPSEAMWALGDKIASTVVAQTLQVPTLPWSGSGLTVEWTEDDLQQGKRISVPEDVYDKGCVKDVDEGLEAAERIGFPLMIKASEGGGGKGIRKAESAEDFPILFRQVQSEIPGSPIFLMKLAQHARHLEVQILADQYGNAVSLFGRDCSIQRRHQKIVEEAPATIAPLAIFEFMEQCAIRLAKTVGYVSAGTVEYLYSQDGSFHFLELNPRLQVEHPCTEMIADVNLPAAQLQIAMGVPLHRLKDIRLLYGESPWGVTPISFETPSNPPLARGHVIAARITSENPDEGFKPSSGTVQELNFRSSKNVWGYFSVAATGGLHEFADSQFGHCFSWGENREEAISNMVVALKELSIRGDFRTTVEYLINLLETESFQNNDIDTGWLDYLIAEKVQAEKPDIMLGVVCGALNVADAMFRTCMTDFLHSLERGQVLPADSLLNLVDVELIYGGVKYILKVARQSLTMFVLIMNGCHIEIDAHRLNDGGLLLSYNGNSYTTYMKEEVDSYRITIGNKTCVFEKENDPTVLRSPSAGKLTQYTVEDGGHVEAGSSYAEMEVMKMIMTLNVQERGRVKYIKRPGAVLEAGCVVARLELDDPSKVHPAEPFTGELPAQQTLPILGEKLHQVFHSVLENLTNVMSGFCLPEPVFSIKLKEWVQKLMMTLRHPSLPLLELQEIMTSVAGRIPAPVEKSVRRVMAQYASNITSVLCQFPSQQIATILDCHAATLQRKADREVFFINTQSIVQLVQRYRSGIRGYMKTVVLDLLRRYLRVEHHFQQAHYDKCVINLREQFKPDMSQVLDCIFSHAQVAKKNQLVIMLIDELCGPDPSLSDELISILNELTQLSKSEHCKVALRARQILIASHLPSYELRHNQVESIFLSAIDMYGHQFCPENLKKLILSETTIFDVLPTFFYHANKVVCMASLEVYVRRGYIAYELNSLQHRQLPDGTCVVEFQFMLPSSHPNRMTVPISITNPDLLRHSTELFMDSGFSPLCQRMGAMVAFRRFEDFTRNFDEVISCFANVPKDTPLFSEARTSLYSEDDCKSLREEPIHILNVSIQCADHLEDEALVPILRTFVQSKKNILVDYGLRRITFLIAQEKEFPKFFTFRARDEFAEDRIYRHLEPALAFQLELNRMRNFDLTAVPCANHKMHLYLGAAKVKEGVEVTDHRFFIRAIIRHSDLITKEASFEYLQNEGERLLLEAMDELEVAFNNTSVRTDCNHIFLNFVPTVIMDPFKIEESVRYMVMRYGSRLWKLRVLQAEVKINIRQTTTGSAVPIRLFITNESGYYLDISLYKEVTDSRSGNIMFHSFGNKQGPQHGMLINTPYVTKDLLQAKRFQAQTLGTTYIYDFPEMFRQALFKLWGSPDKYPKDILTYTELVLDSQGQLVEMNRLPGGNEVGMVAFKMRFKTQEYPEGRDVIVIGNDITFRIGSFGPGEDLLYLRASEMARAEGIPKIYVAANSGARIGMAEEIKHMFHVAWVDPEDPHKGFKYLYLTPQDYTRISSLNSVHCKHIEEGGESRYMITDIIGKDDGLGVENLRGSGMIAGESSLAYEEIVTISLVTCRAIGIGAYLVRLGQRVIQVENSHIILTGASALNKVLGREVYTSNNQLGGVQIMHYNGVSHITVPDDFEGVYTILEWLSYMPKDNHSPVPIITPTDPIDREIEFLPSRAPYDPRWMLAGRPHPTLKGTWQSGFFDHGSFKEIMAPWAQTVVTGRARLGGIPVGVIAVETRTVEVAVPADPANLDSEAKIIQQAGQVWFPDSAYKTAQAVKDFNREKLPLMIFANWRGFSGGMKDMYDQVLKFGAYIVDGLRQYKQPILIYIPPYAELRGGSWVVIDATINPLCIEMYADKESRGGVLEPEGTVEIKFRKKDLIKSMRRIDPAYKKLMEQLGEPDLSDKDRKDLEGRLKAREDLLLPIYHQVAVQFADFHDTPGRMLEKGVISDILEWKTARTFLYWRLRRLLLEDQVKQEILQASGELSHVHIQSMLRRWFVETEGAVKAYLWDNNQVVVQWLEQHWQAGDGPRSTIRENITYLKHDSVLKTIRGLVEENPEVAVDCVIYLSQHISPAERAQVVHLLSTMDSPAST
The experiment in a line: ACC2 assay, spectrophotometric 384 well assay (NADH-linked, coupled lactate dehydrogenase/pyruvate kinase). In kind it is biochemical. Particulars: ACC2 assay; human ACC2 construct lacking 128 N-terminal amino acids; 25° C., 340 nm, 15 minutes; read-out: IC50. The protocol: Spectrophotometric 384 Well Assay
Malonyl CoA formation by acetyl CoA carboxylases is stoichometrically linked to the consumption of ATP. ACC2 activity is measured in a NADH-linked kinetic method measuring ADP generated during the ACC reaction using a coupled lactate dehydrogenase/pyruvate kinase reaction.
For biological testing, a human ACC2 construct which lacks the 128 amino acids at the N-terminus for increased solubility (nt 385-6966 in Genbank entry AJ575592) is cloned. The protein is then expressed in insect cells using a baculoviral expression system. Protein purification is performed by anion exchange.
All compounds are dissolved in dimethyl sulfoxide (DMSO) to a concentration of 10 mM.
Assay reactions are then carried out in 384-well plates, with hACC2 in an appropriate dilution and at final assay concentrations (f.c.) of 100 mM Tris (pH 7.5), 10 mM trisodium citrate, 25 mM KHCO3, 10 mM MgCl2, 0.5 mg/ml BSA, 3.75 mM reduced L-glutathione, 15 U/ml lactate dehydrogenase, 0.5 mM phosphoenolpyruvate, 15 U/ml pyruvate kinase, compounds at different concentrations at final DMSO concentrations of 1%.
The enzymatic reaction is then started by addition of a mixture of NADH, acetyl Coenzyme A (both […].) and ATP (500 uM f.c.). The decrease of the optical density (slope S) is then determined at 25° C. at a wavelength of 340 nm over 15 minutes in a spectrophotometric reader.
Each assay microtiter plate contains wells with vehicle instead of compound as controls for the non-inhibited enzyme (100% CTL; ‘HIGH’) and wells without acetyl-CoA as controls for non-specific NADH degradation (0% CTL; ‘LOW’).
The slope S is used for calculation of % CTL=(S(compound)−S(‘LOW’))/(S(‘HIGH’)−S(‘LOW’))100. Compounds will give values between 100% CTL (no inhibition) and 0% CTL (complete inhibition).
For IC50 value determination, the sample slope in the presence of the test compound after subtraction of the low controls (S(compound)−S(‘LOW’)) are used.
An IC50 value is derived from the compound slopes at different dosages after subtraction of the low controls (S(compound)−S(‘LOW’)) by non-linear regression curve fitting (equation y=(A+((B−A)/(1+((C/x)^D))))).
Broadly, the IC50 is the concentration needed to halve the response being measured. Regarding `CCOCC(=O)N[C@@H](C)c1ccc(N2CC(Oc3ccc(OCC)cc3)C2)cc1` [Example 1.62], the IC50 worked out at 2500 nM.
In the case of `C#CC(C)(C)C(=O)N[C@@H](C)c1ccc(N2CC(Oc3ccc(OCC)cc3)C2)cc1` [Example 1.63] it was 930 nM; in that of `CCOc1ccc(OC2CN(c3ccc([C@H](C)NC(=O)c4ccc(C)nc4)cc3)C2)cc1` [Example 1.64], 2190 nM.
As to `CCCCC(=O)N[C@@H](C)c1ccc(N2CC(Oc3ccc(OCC)cc3)C2)cc1` [Example 1.65], the IC50 was found to be 800 nM.
In the case of `CCOc1ccc(OC2CN(c3ccc([C@H](C)NC(=O)c4sc(NC(C)=O)nc4-c4ccccc4)cc3)C2)cc1` [Example 1.66] it was 550 nM.
With `CCOc1ccc(OC2CN(c3ccc([C@H](C)NC(=O)CCOC)cc3)C2)cc1` [Example 1.67] the figure was 1290 nM.
As for `CCOc1ccc(OC2CN(c3ccc([C@H](C)NC(=O)C(C)(C)C#N)cc3)C2)cc1` [Example 1.68], the IC50 was 1520 nM.
Regarding `CCOc1ccc(OC2CN(c3ccc([C@H](C)NC(=O)c4ccc(C)c(NC(C)=O)c4)cc3)C2)cc1` [Example 1.69], the IC50 amounted to 3150 nM.
In the case of `CCOc1ccc(OC2CN(c3ccc([C@H](C)NC(=O)C(C)CC)cc3)C2)cc1` (some centres unmarked) [Example 1.71] it was 710 nM; in that of `CCOc1ccc(OC2CN(c3ccc([C@H](C)NC(=O)c4coc(NC(C)=O)n4)cc3)C2)cc1` [Example 1.72], 1190 nM; in that of `CCOc1ccc(OC2CN(c3ccc([C@H](C)NC(=O)C(F)F)cc3)C2)cc1` [Example 1.73], 160 nM.
With `CCOc1ccc(OC2CN(c3ccc([C@H](C)NC(=O)C4(C(F)(F)F)CC4)cc3)C2)cc1` [Example 1.74] the figure was 410 nM.
For the compound `CCOc1ccc(OC2CN(c3ccc([C@H](C)NC(=O)CC(F)(F)F)cc3)C2)cc1` [Example 1.75], the IC50 was found to be 410 nM.
Take `CCOc1ccc(OC2CN(c3ccc([C@H](C)NC(=O)c4sc(C)nc4C)cc3)C2)cc1` [Example 1.76]: the IC50 turned out to be 1000 nM.
With `C#CCCC(=O)N[C@@H](C)c1ccc(N2CC(Oc3ccc(OCC)cc3)C2)cc1` [Example 1.77] the figure was 1040 nM; with `CCOc1ccc(OC2CN(c3ccc([C@H](C)NC(=O)c4cncc(NC(C)=O)c4)cc3)C2)cc1` [Example 1.78], 360 nM; with `CCOc1ccc(OC2CN(c3ccc([C@H](C)NC(=O)C(C)O)cc3)C2)cc1` (some centres unmarked) [Example 1.79], 1720 nM.
In the case of `CCOc1ccc(OC2CN(c3ccc([C@H](C)NC(=O)CCC#N)cc3)C2)cc1` [Example 1.80] it was 1060 nM; in that of `CCOc1ccc(OC2CN(c3ccc([C@H](C)NC(=O)Cc4ccccn4)cc3)C2)cc1` [Example 1.81], 2330 nM; in that of `CCOc1ccc(OC2CN(c3ccc([C@H](C)NC(=O)C(C)C#N)cc3)C2)cc1` (some centres unmarked) [Example 1.82], 270 nM.
With `CCOc1ccc(OC2CN(c3ccc([C@H](C)NC(=O)CC#N)cc3)C2)cc1` [Example 1.83] the figure was 590 nM; with `CCOc1ccc(OC2CN(c3ccc([C@H](C)NC(=O)c4cnon4)cc3)C2)cc1` [Example 1.84], 730 nM; with `CCOc1ccc(OC2CN(c3ccc([C@H](C)NC(=O)c4cncs4)cc3)C2)cc1` [Example 1.85], 230 nM.
Regarding `C[C@H](NC(=O)c1cn[nH]c1)c1ccc(N2CC(Oc3ccc(OCC4CC4)cc3)C2)cc1` [Example 1.86], the IC50 amounted to 50 nM.
In the case of `C[C@H](NC(=O)CC#N)c1ccc(N2CC(Oc3ccc(OCC4CC4)cc3)C2)cc1` [Example 1.87] it was 200 nM.
With `CCC(=O)N[C@@H](C)c1ccc(N2CC(Oc3ccc(OCC4CC4)cc3)C2)cc1` [Example 1.88] the figure was 100 nM; with `C[C@H](NC(=O)C1(C)CC1)c1ccc(N2CC(Oc3ccc(OCC4CC4)cc3)C2)cc1` [Example 1.89], 120 nM; with `C[C@H](NC(=O)c1cncs1)c1ccc(N2CC(Oc3ccc(OCC4CC4)cc3)C2)cc1` [Example 1.90], 90 nM.
With `CCOc1ccc(OC2CN(c3ccc([C@H](C)NC(=O)c4cc(C)oc4C)cc3)C2)cc1` [Example 2.1, (S)-2,5-Dimethyl-furan-3-carboxylic acid (1-{4-[3-(4-ethoxy-phenoxy)-azetidin-1-yl]-phenyl}-ethyl)-amide] the figure was 1530 nM; with `CCOc1ccc(OC2CN(c3ccc([C@H](C)NC(=O)c4ccnn4C)cc3)C2)cc1` [Example 2.2], 790 nM; with `CCOc1ccc(OC2CN(c3ccc([C@H](C)NC(=O)c4ccoc4C)cc3)C2)cc1` [Example 2.3], 820 nM.
On to `CCOc1ccc(OC2CN(c3ccc([C@H](C)NC(=O)c4ccno4)cc3)C2)cc1` [Example 2.4], for which the IC50 is 290 nM.
With `C[C@H](NC(=O)C1CC1)c1ccc(N2CC(Oc3ccc(OCC4CC4)cc3)C2)cc1` [Example 2.7] the figure was 70 nM; with `CCOc1ccc(OC2CN(c3ccc([C@H](C)NC(=O)C(F)(F)F)cc3)C2)cc1` [Example 3.1, (S)—N-(1-{4-[3-(4-Ethoxy-phenoxy)-azetidin-1-yl]-phenyl}-ethyl)-2,2,2-trifluoro-acetamide], 60 nM.
With `CCOc1ccc(OC2CN(c3ccc([C@H](C)NC(=O)Nc4ccncn4)cc3)C2)cc1` [Example 4.1, (S)-1-(1-{4-[3-(4-Ethoxy-phenoxy)-azetidin-1-yl]-phenyl}-ethyl)-3-pyrimidin-4-yl-urea] the figure was 3410 nM.
On to `CCNC(=O)N[C@@H](C)c1ccc(N2CC(Oc3ccc(OCC)cc3)C2)cc1` [Example 4.2], for which the IC50 was 1540 nM.
In the case of `CCOc1ccc(OC2CN(c3ccc([C@H](C)NC(=O)NC)cc3)C2)cc1` [Example 4.3] it was 1000 nM; in that of `CCOc1ccc(OC2CN(c3ccc([C@H](C)NC(=O)N4CC(O)C4)cc3)C2)cc1` [Example 4.4], 1610 nM.
`CCOc1ccc(OC2CN(c3ccc([C@H](C)NC(=O)N(C)CC4CC4)cc3)C2)cc1` [Example 4.5]: the IC50 stood at 5570 nM.
As to `CCOc1ccc(OC2CN(c3ccc([C@H](C)NC(=O)Nc4cc[nH]n4)cc3)C2)cc1` [Example 4.7], the IC50 is 2310 nM.
With `CCOc1ccc(OC2CN(c3ccc([C@H](C)NC(=O)N(C)CCOC)cc3)C2)cc1` [Example 4.8] the figure was 1390 nM.
Take `CCOc1ccc(OC2CN(c3ccc([C@H](C)NC(=O)N(C)CC)cc3)C2)cc1` [Example 4.9]: the IC50 stood at 860 nM.
With `CCOc1ccc(OC2CN(c3ccc([C@H](C)NC(=O)N(C)C(C)C)cc3)C2)cc1` [Example 4.10] the figure was 3100 nM; with `CCOc1ccc(OC2CN(c3ccc([C@H](C)NC(=O)N4CCC4)cc3)C2)cc1` [Example 4.11], 2370 nM.
Turning to `CCOc1ccc(OC2CN(c3ccc([C@H](C)NC(=O)N(CC#N)C4CC4)cc3)C2)cc1` [Example 4.12], the IC50 amounted to 1610 nM.
In the case of `CCOc1ccc(OC2CN(c3ccc([C@H](C)NC(=O)N(C)c4cccnc4)cc3)C2)cc1` [Example 4.13] it was 370 nM.
With `CCOc1ccc(OC2CN(c3ccc([C@H](C)NC(=O)N(C)C4CC4)cc3)C2)cc1` [Example 4.14] the figure was 3450 nM.
With `C[C@H](NC(=O)N(C)C)c1ccc(N2CC(Oc3ccc(OCC4CC4)cc3)C2)cc1` [Example 4.15], the IC50 was 70 nM.
In the case of `CCNC(=O)N[C@@H](C)c1ccc(N2CC(Oc3ccc(OCC4CC4)cc3)C2)cc1` [Example 4.16], the IC50 was found to be 280 nM.
In the case of `C[C@H](NC(=O)N(C)C1CC1)c1ccc(N2CC(Oc3ccc(OCC4CC4)cc3)C2)cc1` [Example 4.17] it was 1130 nM; in that of `CCOc1ccc(OC2CN(c3ccc([C@H](C)NC4=CC(=O)OC4)cc3)C2)cc1` [Example 5.1, (S)-4-(1-{4-[3-(4-Ethoxy-phenoxy)-azetidin-1-yl]-phenyl}-ethylamino)-5H-furan-2-one], 340 nM; in that of `CC(=O)N[C@@H](C)c1ccc(N2CC(Oc3ccc(C(C)(C)C)cc3)C2)cc1` [Example 6.1, (S)—N-(1-{4-[3-(4-tert-Butyl-phenoxy)-azetidin-1-yl]-phenyl}-ethyl)-acetamide], 260 nM.
In the case of `CCOc1ccc(OC2CN(c3ccc([C@H](C)NC(C)=O)cc3)C2)c(F)c1` [Example 7.1, (S)—N-(1-{4-[3-(4-Ethoxy-2-fluoro-phenoxy)-azetidin-1-yl]-phenyl}-ethyl)-acetamide] it was 120 nM.
